This is an account of results in US8445674B2, “Heterocyclyl compounds” (Hoffmann-La Roche Inc, priority 2009, dated 2013).

The target in this experiment is T1, human chemokine receptor 2 isoform B (Homo sapiens, UniProt P41597).
T1 construct: host or cells: CHOK1-CCR2B-A5 cells (CHO-K1)
T1 sequence (P41597 1-360 isoform P41597-2): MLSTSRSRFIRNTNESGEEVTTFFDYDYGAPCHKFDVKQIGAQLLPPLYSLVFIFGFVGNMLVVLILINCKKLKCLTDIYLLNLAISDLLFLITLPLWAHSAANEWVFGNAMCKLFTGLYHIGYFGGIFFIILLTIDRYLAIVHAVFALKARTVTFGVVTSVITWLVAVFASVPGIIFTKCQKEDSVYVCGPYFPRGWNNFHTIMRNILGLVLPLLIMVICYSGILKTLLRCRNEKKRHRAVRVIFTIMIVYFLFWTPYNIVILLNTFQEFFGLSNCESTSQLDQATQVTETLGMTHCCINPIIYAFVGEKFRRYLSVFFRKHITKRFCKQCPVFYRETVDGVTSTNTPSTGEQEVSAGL
The experiment can be described thus: Calcium mobilization assay (FLIPR, antagonist activity against MCP-1). Type of experiment: cell-based. The settings on record: Ca mobilisation assay, CHOK1-CCR2B-A5 cells, inhibition of calcium increase induced by 20 nM MCP-1. The essentials:
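CHOK1 cells stably overexpressing human CCR2B, loaded with 4 μM Fluo-4 for 2 h at 30° C, compounds added and agonist signal read by FLIPR for 80 s. After 20-30 min at 30° C, 20 nM MCP-1 was added and fluorescence read again. IC50 is 50% inhibition of specific calcium increase (max minus basal).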

One may read the IC50 as the midpoint of a concentration-inhibition curve. Take `C[C@H]1C(=O)N(CCC(=O)N2CCC(C)(O)CC2)CCN1C(=O)Nc1ccc(Cl)c(Cl)c1` [Example 18, (S)-4-[3-(4-Hydroxy-4-methyl-piperidin-1-yl)-3-oxo-propyl]-2-methyl-3-oxo-piperazine-1-carboxylic acid (3,4-dichloro-phenyl)-amide]: the IC50 was found to be 1040 nM.
As to `C[C@H]1C(=O)N(CCC(F)C(=O)N2CCC3(CC3)[C@H](O)C2)CCN1C(=O)Nc1ccc(C(F)(F)F)c(Cl)c1` (single isomer, unassigned) [Example 138, (S)-4-[(S or R)-3-fluoro-4-((S)-4-hydroxy-6-aza-spiro[2.5]oct-6-yl)-4-oxo-butyl]-2-methyl-3-oxo-piperazine-1-carboxylic acid (3-chloro-4-trifluoromethyl-phenyl)-amide], the IC50 is 1.4 nM.
Next, `C[C@H]1C(=O)N([C@H](CO)CCC(=O)N2CCC3(CC3)[C@H](O)C2)CCN1C(=O)Nc1ccc(C(F)(F)F)c(C(F)(F)F)c1` [Example 144, (S)-4-[(S)-4-((S)-4-Hydroxy-6-aza-spiro[2.5]oct-6-yl)-1-hydroxymethyl-4-oxo-butyl]-2-methyl-3-oxo-piperazine-1-carboxylic acid (3,4-bis-trifluoromethyl-phenyl)-amide]: 4.5 nM; `C[C@H]1C(=O)N(C[C@@H](O)CC(=O)N2CCC3(CC3)[C@H](O)C2)CCN1C(=O)Nc1ccc(OC(F)(F)F)c(Cl)c1` [Example 45, (S)-4-[(S)-2-hydroxy-4-((S)-4-hydroxy-6-aza-spiro[2.5]oct-6-yl)-4-oxo-butyl]-2-methyl-3-oxo-piperazine-1-carboxylic acid (3-chloro-4-trifluoromethoxy-phenyl)-amide]: 2 nM; `CC1(O)CCN(C(=O)CCN2CCN(C(=O)/C=C/c3ccc(Cl)c(Cl)c3)CCC2=O)CC1` [Example 73, 1-[(E)-3-(3,4-Dichloro-phenyl)-acryloyl]-4-[3-(4-hydroxy-4-methyl-piperidin-1-yl)-3-oxo-propyl]-[1,4]diazepan-5-one]: 65.9 nM.
Next, `C[C@H]1C(=O)N(CCCC(=O)N2CCC3(CC3)[C@H](O)C2)CCN1C(=O)Nc1cccc(OC(F)(F)F)c1` [Example 31, (S)-4-[4-((S)-4-Hydroxy-6-aza-spiro[2.5]oct-6-yl)-4-oxo-butyl]-2-methyl-3-oxo-piperazine-1-carboxylic acid (3-trifluoromethoxy-phenyl)-amide]: 51 nM.
Next, `CC1(CO)CCCCN1C(=O)CCN1CCN(C(=O)/C=C/c2ccc(Cl)c(Cl)c2)CCC1=O` (racemic) [Example 75, (rac)-1-[(E)-3-(3,4-Dichloro-phenyl)-acryloyl]-4-[3-(2-hydroxymethyl-2-methyl-piperidin-1-yl)-3-oxo-propyl]-[1,4]diazepan-5-one]: 969 nM.
In the case of `C[C@H]1C(=O)N(CCCC(=O)N2CCC3(CC3)[C@H](O)C2)CCN1C(=O)Nc1ccc(Cl)c(Cl)c1` [Example 25, (S)-4-[4-((S)-4-Hydroxy-6-aza-spiro[2.5]oct-6-yl)-4-oxo-butyl]-2-methyl-3-oxo-piperazine-1-carboxylic acid (3,4-dichloro-phenyl)-amide], the IC50 stood at 3.6 nM.
Next, `C[C@H]1C(=O)N(CCCC(=O)N2CCC3(CC3)[C@H](O)C2)CCN1C(=O)Nc1ccc(OC(F)(F)F)c(Cl)c1` [Example 34, (S)-4-[4-((S)-4-Hydroxy-6-aza-spiro[2.5]oct-6-yl)-4-oxo-butyl]-2-methyl-3-oxo-piperazine-1-carboxylic acid (3-chloro-4-trifluoromethoxy-phenyl)-amide]: 1.7 nM; `CN(C)C(=O)[C@@H](CCO)N1CCN(C(=O)/C=C/c2cccc(Cl)c2)CCC1=O` [Example 14, (R)-2-{4-[(E)-3-(3-Chloro-phenyl)-acryloyl]-7-oxo-[1,4]diazepan-1-yl}-4-hydroxy-N,N-dimethyl-butyramide]: 907 nM.
With `C[C@H]1C(=O)N(CCCC(=O)N2CCC3(CC3)[C@H](O)C2)CCN1C(=O)Nc1cccc(C(F)(F)F)c1` [Example 28, (S)-4-[4-((S)-4-Hydroxy-6-aza-spiro[2.5]oct-6-yl)-4-oxo-butyl]-2-methyl-3-oxo-piperazine-1-carboxylic acid (3-trifluoromethyl-phenyl)-amide] the figure was 54.9 nM; with `O=C(/C=C/c1ccc(Cl)c(Cl)c1)N1CCC(=O)N(CCC(=O)N2CCC(O)(c3cccnc3)CC2)CC1` [Example 77, 1-[(E)-3-(3,4-Dichloro-phenyl)-acryloyl]-4-[3-(4′-hydroxy-3′,4′,5′,6′-tetrohydro-2′H-[3,4′]bipyridinyl-1′-yl)-3-oxo-propyl]-[1,4]diazepan-5-one], 129 nM.
Consider `O=C1CCN(C(=O)Nc2cccc(Cl)c2)CCN1CCCC(=O)N1CCC2(CC2)[C@H](O)C1` [Example 116, 4-[4-((S)-4-Hydroxy-6-aza-spiro[2.5]oct-6-yl)-4-oxo-butyl]-5-oxo-[1,4]diazepane-1-carboxylic acid (3-chloro-phenyl)-amide], for which the IC50 turned out to be 1290 nM.
Next, `O=C(/C=C/c1ccc(Cl)c(Cl)c1)N1CCC(=O)N(C(CCO)C(=O)N2CCCC2)CC1` (racemic) [Example 5, rac-(1-[(E)-3-(3,4-Dichloro-phenyl)-acryloyl]-4-[3-hydroxy-1-(pyrrolidine-1-carbonyl)-propyl]-[1,4]diazepan-5-one)]: 583 nM; `C[C@H]1C(=O)N(CCC(=O)N2CCC(C(F)(F)F)CC2)CCN1C(=O)Nc1ccc(Cl)c(Cl)c1` [Example 24, (S)-2-Methyl-3-oxo-4-[3-oxo-3-(4-trifluoromethyl-piperidin-1-yl)-propyl]-piperazine-1-carboxylic acid (3,4-dichloro-phenyl)-amide]: 3170 nM; `COC(=O)C(CC(=O)N1C[C@@H](C)C[C@H](O)C1)N1CCN(C(=O)/C=C/c2ccc(Cl)c(Cl)c2)CCC1=O` (stereo partly drawn) [Example 9, (R,S)-2-{4-[(E)-3-(3,4-Dichloro-phenyl)-acryloyl]-7-oxo-[1,4]diazepan-1-yl}-4-((3S,5S)-3-hydroxy-5-methyl-piperidin-1-yl)-4-oxo-butyric acid methyl ester]: 2350 nM.
With “(S)-4-[4-((S)-4-Hydroxy-6-aza-spiro[2.5]oct-6-yl)-4-oxo-butyl]-2-methyl-3-oxo-piperazine-1-carboxylic acid (3-chloro-phenyl)-amide [Example 39]” the figure was 965 nM; with “(rac)-2-{4-[(E)-3-(3,4-Dichloro-phenyl)-acryloyl]-7-oxo-[1,4]diazepan-1-yl}-4-hydroxy-N,N-dimethyl-butyramide [Example 4]”, 370 nM.
Next, `C[C@H]1C(=O)N(CCC(O)C(=O)N2CCC3(CC3)[C@H](O)C2)CCN1C(=O)Nc1ccc(C(F)(F)F)c(Cl)c1` (stereo partly drawn) [Example 133, (S)-4-[(R,S)-3-Hydroxy-4-((S)-4-hydroxy-6-aza-spiro[2.5]oct-6-yl)-4-oxo-butyl]-2-methyl-3-oxo-piperazine-1-carboxylic acid (3-chloro-4-trifluoromethyl-phenyl)-amide]: 134 nM.
In the case of `C[C@H]1C[C@H](O)CN(C(=O)CCN2C[C@@H](C)N(C(=O)/C=C/c3cccc(Cl)c3)CCC2=O)C1` [Example 103, (R)-1-[(E)-3-(3-Chloro-phenyl)-acryloyl]-4-[3-((3S,5S)-3-hydroxy-5-methyl-piperidin-1-yl)-3-oxo-propyl]-2-methyl-[1,4]diazepan-5-one], the IC50 was found to be 1290 nM.
Next, `O=C1CCCN(C(=O)CCN2CCN(C(=O)/C=C/c3ccc(Cl)c(Cl)c3)CCC2=O)C1` [Example 79, 1-[(E)-3-(3,4-Dichloro-phenyl)-acryloyl]-4-[3-oxo-3-(3-oxo-piperidin-1-yl)-propyl]-[1,4]diazepan-5-one]: 1820 nM; `C[C@H]1C(=O)N(CCC(=O)N2CCC3(CC3)[C@H](O)C2)CCN1C(=O)Nc1ccc(Cl)c(Cl)c1` [Example 15, (S)-4-[3-((S)-4-Hydroxy-6-aza-spiro[2.5]oct-6-yl)-3-oxo-propyl]-2-methyl-3-oxo-piperazine-1-carboxylic acid (3,4-dichloro-phenyl)-amide]: 237 nM; `C[C@H]1C(=O)N(CCCC(=O)N2CCC(C)(O)CC2)CCN1C(=O)Nc1cccc(Cl)c1` [Example 105, (S)-4-[4-(4-Hydroxy-4-methyl-piperidin-1-yl)-4-oxo-butyl]-2-methyl-3-oxo-piperazine-1-carboxylic acid (3-chloro-phenyl)-amide]: 3410 nM.
With `C[C@@H]1CN([C@H](CO)CCC(=O)N2CCC3(CC3)[C@H](O)C2)C(=O)CCN1c1ccc(C(F)(F)F)c(C(F)(F)F)c1` [Example 128, (R)-1-(3,4-bis-trifluoromethyl-phenyl)-4-[(S)-4-((S)-4-hydroxy-6-aza-spiro[2.5]oct-6-yl)-1-hydroxymethyl-4-oxo-butyl]-2-methyl-[1,4]diazepan-5-one] the figure was 4.6 nM; with `C[C@H]1C(=O)N([C@H](CO)CCC(=O)N2CCC3(CC3)[C@H](O)C2)CCN1C(=O)Nc1ccc(OC(F)(F)F)c(Cl)c1` [Example 55, (S)-4-[(S)-4-((S)-4-Hydroxy-6-aza-spiro[2.5]oct-6-yl)-1-hydroxymethyl-4-oxo-butyl]-2-methyl-3-oxo-piperazine-1-carboxylic acid (3-chloro-4-trifluoromethoxy-phenyl)-amide], 1.8 nM.
